Values after ≈ are worked out from the molar mass of the structure shown.
What was measured:
[1] = Apparent permeability coefficient, Papp of the compound at pH 7.4 incubated for 4 hrs by UPLC/MS/MS analysis; assay type: ADME; details: for Papp at 4 h: not told, pH 7.4
[2] = Metabolic stability of the compound in human liver microsomes incubated for 10 mins in presence of NADPH by UPLC/MS/MS analysis; assay type: ADME, Microsome; details: read-out: Stability
[3] = Lipophilicity, logD of the compound by UPLC analysis; assay type: physicochemical; details: octanol/water
[4] = Metabolic stability of the compound in human liver microsomes incubated for 60 mins in presence of NADPH by UPLC/MS/MS analysis; assay type: ADME, Microsome; details: read-out: Stability
[5] = Solubility of the compound in PBS buffer at 100 uM at pH 7.4 by UPLC/MS/MS analysis; assay type: physicochemical
[6] = molecular target: Protein cereblon/Hematopoietic prostaglandin D synthase (Homo sapiens, UniProt O60760+Q96SW2); test: PROTAC activity at CRBN/H-PGDS in human KU812 cells assessed as induction of H-PGDS degradation by measuring decrease in H-PGDS protein expression incubated for 24 hrs by western blot analysis; assay type: cell-based; details: for DC50: ku812 cell line; for Activity: KU812 cell line

Row | Compound | Papp at 4 h [1] [×10⁻⁶ cm/s] | remaining at 10 min [2] [%] | logD [3] | remaining at 1 h [4] [%] | solubility at 100 µM [5] [µM] | DC50 [6] [nM] | Activity [6] | Papp ([1]; pH 7.4, 4 h) [×10⁻⁶ cm/s]
1 | Cn1cccc1C(=O)N1CCN(C(=O)Nc2ccc(N3CCC(C(=O)N4CCOCC4)CC3)cc2)CC1 | 0.21 | 92 | 2.25 | 83 | ≥ 95 |  |  | 
2 | Cn1cccc1C(=O)N1CCN(C(=O)Nc2ccc(N3CCC(C(=O)N4CCN(c5ccc6c(c5)C(=O)N(C5CCC(=O)NC5=O)C6=O)CC4)CC3)cc2)CC1 (stereo not drawn) | 0.009 | 90 | 2.65 | 72 | 2.91 (≈ 2.22 µg/mL) | 0.02 |  | 
3 | O=C(Nc1ccc(N2CCC(C(=O)N3CCOCC3)CC2)cc1)c1cnc(Oc2ccccc2)nc1 | 3.01 | 96 | 3.06 | 80 | 3.17 (≈ 1.55 µg/mL) |  |  | 
4 | O=C1CCC(N2C(=O)c3cccc(N4CCN(C(=O)C5CCN(c6ccc(NC(=O)c7cnc(Oc8ccccc8)nc7)cc6)CC5)CC4)c3C2=O)C(=O)N1 (stereo not drawn) | 0.07 | 89 | 3.39 | 75 | 1.12 (≈ 0.832 µg/mL) | 0.036 |  | 
5 | O=C1CCC(N2C(=O)c3ccc(N4CCN(C(=O)C5CCN(c6ccc(NC(=O)c7cnc(Oc8ccccc8)nc7)cc6)CC5)CC4)cc3C2=O)C(=O)N1 (stereo not drawn) | 0.049 | 93 | 3.33 | 80 | < 0.5 | 0.175 |  | 
6 | O=C1CCC(N2C(=O)c3cc(F)c(N4CCN(C(=O)C5CCN(c6ccc(NC(=O)c7cnc(Oc8ccccc8)nc7)cc6)CC5)CC4)cc3C2=O)C(=O)N1 (stereo not drawn) | 0.007 | 93 | 3.5 | 69 | < 0.5 | 0.147 | Dose-Dependent Effect | 
7 | O=C1CCC(c2ccc(NCC(=O)N3CCN(C(=O)C4CCN(c5ccc(NC(=O)c6cnc(Oc7ccccc7)nc6)cc5)CC4)CC3)cc2)C(=O)N1 (stereo not drawn) | 0.2 | 89 | 3 | 78 | 7 (≈ 5.12 µg/mL) | 0.104 | Dose-Dependent Effect | 
8 | Cn1cccc1C(=O)N1CCN(C(=O)Nc2ccc(N3CCC(C(=O)N4CCN(c5cccc6c5C(=O)N(C5CCC(=O)NC5=O)C6=O)CC4)CC3)cc2)CC1 (stereo not drawn) |  | 93 | 2.79 | 79 | 37.4 (≈ 28.6 µg/mL) | 0.02 |  | 0.0007
